Measured values from PMC5478271, “Chemical structure-guided design of dynapyrazoles, cell-permeable dynein inhibitors with a unique mode of action” (eLife, 2017).

What was measured:
His-dynein 1 [1] = target: T1, His-dynein 1 (Homo sapiens, UniProt Q14204); test: Microtubule-stimulated ATPase activity of His-dynein 1; type: biochemical; details: 1 mM MgATP
T1 construct: (wild-type, K1912A, K2601A, AA 1320–4646, uniprot: Q14204); made in house; host or cells: Sf9 insect cells (baculovirus)
Description: (§1) ATPase assays using recombinant Dynein 1 (wild-type and mutants) were performed in a buffer containing 25 mM PIPES pH7.0, 30 mM KCl, 1 mM EGTA, 5 mM MgCl2, 0.01% triton X-100, 1 mM DTT, and 20–30 µM taxol (if microtubules were present). For typical conditions, enzyme was incubated with varying concentrations of inhibitor in buffer containing 2% DMSO for 10 min in a volume of 10 μL. When microtubules were present, they were polymerized by stepwise addition of taxol and high concentrations of DMSO (30% final during polymerization reactions), and re-suspended following centrifugation in ATPase buffer to a concentration up to threefold above the final concentration used in the reaction (bovine brain tubulin, no fluoresecent label). For microtubule-stimulated reactions in dose-response format, reactions were assembled by 1:1:1 mixture of 3x enzyme stock, 3x compound stock (in buffer with 6% DMSO), and 3x microtubule stock to each well. For microtubule-stimulated ATPase assays at tubulin concentrations > 2.5 µM, enzyme stock was supplemented with compound stock in pure DMSO (resulting in an intermediate DMSO concentration of 6%), and then the microtubule stock was added. Final enzyme concentrations were 30–100 nM for GFP-dynein 1, wild-type 6x-His-dynein 1, and K2601A 6x-His-dynein 1 and up to 500 nM for K1912A 6x-His-dynein 1. The final DMSO concentration was 2% in all ATPase assays performed.
Assembled reaction mixtures (including enzyme, compound, and microtubules, if present) were incubated for 10 min before addition of ATP. Each ATPase reaction was initiated by addition of 2 μL of a 6x ATP stock containing trace γ-^32P ATP (3 µCi/mmol, 3 µCi/mL, Perkin Elmer) and allowed to proceed for a time predetermined to lie within the linear range of the assay (20–30 min). For typical conditions, ATP was used at a final concentration of 1 mM. Reactions were quenched by the addition of 12 µL 100 mM EDTA, and 2 μL of each quenched reaction was spotted onto PEI-cellulose TLC plates (Millipore). Plates were developed in a glass chamber with a freshly prepared solution of 150 mM formic acid and 150 mM LiCl, dried, exposed to a storage phosphor tray (GE Healthsciences), and scanned on a Typhoon imaging system (GE Healthsciences). The fraction of γ-phosphate hydrolyzed in each condition was quantified using FIJI.
Curve fitting: Where dose-response experiments are fit and IC50values given, these are obtained as follows: Individual experiments are treated as separate. […]

[2] = test system: Gli-driven luciferase reporter in NIH-3T3 (Shh-Light2) cells; test: Hedgehog pathway activity, Gli-driven luciferase reporter (Shh-Light2 cells, SAG-stimulated); type: cell-based; details: for Concentration at which cell death was observed: 28 hr time course, ~10-fold above the IC50; for IC50: Shh Light2, SAG 500 nM, low serum (0.5% BCS), 28–32 hr, read-out: IC50, inhibition of Gli-driven luciferase reporter expression
Description: We next examined the inhibition of dynein 2 by dynapyrazole-A in cell-based assays. In cell culture, serum starvation results in the formation of primary cilia, which are required for Hedgehog signaling ([Goetz and Anderson, 2010]). Quiescent cells respond to the Hedgehog ligand or to a synthetic agonist and pathway activity can be measured using a Gli-driven luciferase reporter ([Taipale et al., 2000]; [Chen et al., 2002]). Expression of Hedgehog-driven luciferase reporter was inhibited by dynapyrazole-A (Compound 8, IC50: 1.9 ± 0.6 µM) ~8 fold more potently than ciliobrevin D (IC50: 15.5 ± 3 µM, Figure 3I). […] In this assay, we have also observed cell death at high ciliobrevin D concentrations (200 µM,~10x above its IC50). To stimulate Hedgehog pathway activity, we used the synthetic agonist of smoothened (SAG) ([Chen et al., 2002]), which competes with many known Hedgehog pathway inhibitors for binding to Smoothened, a key protein in this signaling pathway ([Sharpe et al., 2015]). As dynapyrazole-A inhibits Hedgehog signaling at high SAG concentrations (500 nM), it is likely to act downstream of Smoothened, as was previously noted for ciliobrevins and consistent with inhibition of dynein 2 ([Hyman et al., 2009]; [Firestone et al., 2012]).
NIH-3T3 cells stably expressing a luciferase reporter downstream of a Gli binding site (Shh-Light2 cells, RRID: CVCL_2721) were maintained in DMEM with 10% bovine calf serum (BCS). Cells were seeded at a density of 30,000 cells/well in 96-well tissue culture-treated plates (Corning, cat #353072) in 100 μL in DMEM +10% BCS, and incubated for 48 hr ([Taipale et al., 2000]). Wells were washed briefly with PBS. Next 100 μL of low serum media (DMEM +0.5% BCS) containing smoothened agonist (SAG, 500nM), and either solvent control (0.2% DMSO) or test compound (serial threefold dilutions of each inhibitor starting from 20 μM) were added to the wells. After 28–32 hr of inhibitor treatment, cells were washed with 50 μL PBS and lysed for >30 min in 30 μL Passive Lysis Buffer (Promega Dual Luciferase kit, cat E1910). 5 μL of each lysate was transferred to white, solid-bottom 96-well plates (Greiner, cat #655075), followed by rapid addition (within 30 s) of 30 μL of Luciferase Assay Reagent using a multichannel pipette. Luminescence for each condition was read using a Synergy Neo plate reader (5 s integration time per well). Cell line identity was confirmed by measurement of the degree of response to Hedgehog pathway stimulation by the synthetic agonist SAG and using previously-published values from our groups and others as references ([Firestone et al., 2012]; [Hyman et al., 2009]).
Curve fitting: Where dose-response experiments are fit and IC50values given, these are obtained as follows: Individual experiments are treated as separate. The data are fit to a sigmoidal dose-response curve of the form (Y=Bottom + (Top-Bottom)/(1 + 10^((LogIC50-X)*HillSlope)). All variables were allowed to float freely with the exception of the variable denoted ‘bottom’, which was constrained to be >0. The separate IC50 values obtained from fits to each individual experiment's dataset were averaged together and presented as a mean with range (Figure 3G and H) or standard deviation (Figures 3I, 5D, 6E and K).

His-dynein 1 [3] = target: T1, His-dynein 1; test: Basal ATPase activity of His-dynein 1 (wild-type); type: biochemical; details: 40 µM compound, 1 mM MgATP, 2% DMSO; control 0.66 ± 0.1 s^−1
Description: as §1, with “Final enzyme concentrations were 30–100 nM for GFP-dynein 1, wild-type 6x-His-dynein 1, and K2601A 6x-His-dynein 1 and up to 500 nM for K1912A 6x-His-dynein 1. The final DMSO concentration was 2% in all ATPase assays performed.” left out
Assembled reaction mixtures (including enzyme, compound, and microtubules, if present) were incubated for 10 min before addition of ATP. […] The fraction of γ-phosphate hydrolyzed in each condition was quantified using FIJI.

T1 sequence (Q14204 1320-4646): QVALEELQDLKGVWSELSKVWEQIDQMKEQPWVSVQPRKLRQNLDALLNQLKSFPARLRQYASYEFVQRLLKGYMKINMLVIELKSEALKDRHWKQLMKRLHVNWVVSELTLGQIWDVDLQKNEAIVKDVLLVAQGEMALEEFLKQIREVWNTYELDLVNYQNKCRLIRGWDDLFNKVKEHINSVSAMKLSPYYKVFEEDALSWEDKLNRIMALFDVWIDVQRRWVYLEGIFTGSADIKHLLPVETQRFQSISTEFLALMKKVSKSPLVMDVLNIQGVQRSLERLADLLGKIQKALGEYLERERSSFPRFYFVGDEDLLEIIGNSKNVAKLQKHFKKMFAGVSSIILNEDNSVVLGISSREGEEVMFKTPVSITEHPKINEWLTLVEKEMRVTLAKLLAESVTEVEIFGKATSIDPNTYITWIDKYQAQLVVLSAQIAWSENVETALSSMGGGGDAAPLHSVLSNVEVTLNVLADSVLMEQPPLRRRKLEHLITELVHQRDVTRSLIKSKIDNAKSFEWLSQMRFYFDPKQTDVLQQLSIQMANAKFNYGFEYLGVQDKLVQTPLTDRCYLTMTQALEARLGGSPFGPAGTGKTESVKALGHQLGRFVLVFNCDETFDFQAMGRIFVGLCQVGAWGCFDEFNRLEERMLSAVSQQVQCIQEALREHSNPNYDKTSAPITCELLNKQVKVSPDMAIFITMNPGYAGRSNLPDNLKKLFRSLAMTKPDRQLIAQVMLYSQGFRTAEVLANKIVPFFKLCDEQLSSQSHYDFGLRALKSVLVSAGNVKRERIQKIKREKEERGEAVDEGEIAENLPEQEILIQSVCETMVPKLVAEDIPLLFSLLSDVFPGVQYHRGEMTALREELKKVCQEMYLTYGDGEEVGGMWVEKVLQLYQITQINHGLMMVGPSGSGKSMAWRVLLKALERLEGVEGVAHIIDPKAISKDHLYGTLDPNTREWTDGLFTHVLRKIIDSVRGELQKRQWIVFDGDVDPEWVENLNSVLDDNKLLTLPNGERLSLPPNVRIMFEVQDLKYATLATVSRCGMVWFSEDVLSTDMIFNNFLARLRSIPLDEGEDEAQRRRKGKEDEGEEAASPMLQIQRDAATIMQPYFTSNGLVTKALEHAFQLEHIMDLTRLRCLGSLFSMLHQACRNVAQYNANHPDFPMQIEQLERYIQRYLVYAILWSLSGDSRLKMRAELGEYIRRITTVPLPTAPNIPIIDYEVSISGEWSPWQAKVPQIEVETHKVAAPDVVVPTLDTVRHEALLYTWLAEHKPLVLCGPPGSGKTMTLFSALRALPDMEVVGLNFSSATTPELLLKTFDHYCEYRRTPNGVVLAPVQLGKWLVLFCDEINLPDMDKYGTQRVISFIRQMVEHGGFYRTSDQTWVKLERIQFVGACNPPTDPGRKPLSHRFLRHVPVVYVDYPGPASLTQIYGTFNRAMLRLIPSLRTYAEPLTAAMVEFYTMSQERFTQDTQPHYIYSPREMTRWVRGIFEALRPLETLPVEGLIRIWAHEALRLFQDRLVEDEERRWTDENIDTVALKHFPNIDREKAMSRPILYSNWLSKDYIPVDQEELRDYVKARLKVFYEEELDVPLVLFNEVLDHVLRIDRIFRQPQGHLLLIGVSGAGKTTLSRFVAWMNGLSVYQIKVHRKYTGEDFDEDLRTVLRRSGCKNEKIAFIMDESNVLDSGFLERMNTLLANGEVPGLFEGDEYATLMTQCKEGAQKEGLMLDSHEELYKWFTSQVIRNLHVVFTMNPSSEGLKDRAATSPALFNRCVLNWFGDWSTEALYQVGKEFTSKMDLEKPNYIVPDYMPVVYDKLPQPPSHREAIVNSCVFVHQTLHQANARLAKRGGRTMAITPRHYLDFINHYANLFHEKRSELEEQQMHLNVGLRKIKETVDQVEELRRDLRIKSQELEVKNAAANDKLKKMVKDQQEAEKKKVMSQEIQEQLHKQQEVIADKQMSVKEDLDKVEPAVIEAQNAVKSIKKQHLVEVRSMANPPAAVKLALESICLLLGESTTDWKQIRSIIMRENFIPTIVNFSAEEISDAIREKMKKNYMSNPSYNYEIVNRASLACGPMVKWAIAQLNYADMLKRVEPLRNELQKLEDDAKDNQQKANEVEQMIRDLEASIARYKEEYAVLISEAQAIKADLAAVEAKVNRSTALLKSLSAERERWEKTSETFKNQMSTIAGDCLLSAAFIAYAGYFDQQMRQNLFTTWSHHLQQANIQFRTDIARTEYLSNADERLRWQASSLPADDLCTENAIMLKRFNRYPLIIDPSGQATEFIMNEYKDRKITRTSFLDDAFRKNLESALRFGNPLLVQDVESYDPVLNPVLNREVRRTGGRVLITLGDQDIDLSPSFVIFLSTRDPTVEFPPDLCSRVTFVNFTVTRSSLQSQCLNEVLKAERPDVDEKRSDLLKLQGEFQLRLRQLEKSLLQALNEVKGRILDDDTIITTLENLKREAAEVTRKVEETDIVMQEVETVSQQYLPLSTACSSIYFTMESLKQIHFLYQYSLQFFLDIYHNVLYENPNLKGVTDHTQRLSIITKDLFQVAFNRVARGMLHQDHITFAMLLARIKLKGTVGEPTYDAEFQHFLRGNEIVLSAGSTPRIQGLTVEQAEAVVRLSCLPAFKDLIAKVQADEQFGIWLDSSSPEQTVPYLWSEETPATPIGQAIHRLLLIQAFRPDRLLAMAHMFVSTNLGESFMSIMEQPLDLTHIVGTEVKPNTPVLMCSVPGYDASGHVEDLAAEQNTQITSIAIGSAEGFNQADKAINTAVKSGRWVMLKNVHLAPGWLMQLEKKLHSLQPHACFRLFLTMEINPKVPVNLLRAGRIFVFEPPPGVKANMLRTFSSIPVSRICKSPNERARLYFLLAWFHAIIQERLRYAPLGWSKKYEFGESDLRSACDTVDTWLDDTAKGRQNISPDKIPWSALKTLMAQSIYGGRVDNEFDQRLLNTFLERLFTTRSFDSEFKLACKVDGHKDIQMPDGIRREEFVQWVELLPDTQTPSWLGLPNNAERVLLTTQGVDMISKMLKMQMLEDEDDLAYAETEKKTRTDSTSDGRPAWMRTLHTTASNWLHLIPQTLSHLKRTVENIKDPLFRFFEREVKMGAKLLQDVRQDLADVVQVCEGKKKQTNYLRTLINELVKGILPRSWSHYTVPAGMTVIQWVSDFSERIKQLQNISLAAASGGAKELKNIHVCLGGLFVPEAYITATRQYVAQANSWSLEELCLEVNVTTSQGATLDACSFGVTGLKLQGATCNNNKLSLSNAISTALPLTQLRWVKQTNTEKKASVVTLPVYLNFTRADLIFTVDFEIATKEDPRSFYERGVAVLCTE

SMILES	Plateau of microtubule-stimulated ATPase activity at increasing compound concentrations (His-dynein 1 [1]; 2.5 µM microtubules)	IC50 (His-dynein 1 [1]; 2.5 µM microtubules, fit to non-zero plateau, read-out: IC50, inhibition of microtubule-stimulated His-dynein 1 ATPase activity)	Residual rate of microtubule-stimulated ATPase activity (His-dynein 1 [1]; 30 µM compound, 8 or 15 µM microtubules)	Concentration at which cell death was observed [2]	IC50 [2]	Potency relative to ciliobrevin D, Hedgehog-driven luciferase reporter ([2]; more potent than ciliobrevin D)	inhibition at 40 µM (His-dynein 1 [3])
N#Cc1c(C2(c3ccc(Cl)cc3)CC2)nn2c1[nH]c(=O)c1cc(I)ccc12 [Compound 8, 2-[1-(4-chlorophenyl)cyclopropyl]-7-iodo-5-oxo-4H-pyrazolo[1,5-a]quinazoline-3-carbonitrile]	~ 0.5 s^−1	6.2 ± 1.6 µM	~ 0.5 s^−1	20 µM	1.9 ± 0.6 µM	~ 8 fold	~30%
N#C/C(C(=O)c1ccc(Cl)cc1Cl)=C1\NC(=O)c2ccc(Cl)cc2N1 [ciliobrevin D, reference compound]	did not reveal a plateau	–	–	200 µM	15.5 ± 3 µM	–	~70%
